Source: patent publication US8048889B2, “3,4-disubstituted coumarin and quinolone compounds” (XTL Biopharmaceuticals Ltd., priority 2005, dated 2011)

What was measured:
[1] = system: HCV Replicon (HCV IRES driven luciferase reporter in Huh-Luc-Neo cells); experiment: HCV Replicon Luciferase Assay; type: cell-based; conditions: Hepatitis C virus, 48 h, no unit in table, hit threshold in μM
Method: (§1) The identification of inhibitors of HCV replication and/or proliferation has been facilitated by the development of a cell based system to study HCV replication and assay for HCV inhibitors. Inhibition of HCV replication may be performed using the HCV Replicon Assay developed in the laboratories of Bartenschlager (Lohman et al, Science 285, 110-113, 1999) and Rice (Blight et al, Science 290, 1972-1974, 2000). The assay is performed using the Huh-Luc-Neo cell line (Lohman et al, Science 285, 110-113, 1999). Huh-Luc-Neo cells are a human hepatoma cell line (Huh-7) stably expressing a bi-cistronic subgenomic replicon containing the HCV IRES in which the structural proteins of HCV had been deleted and replaced by a construct containing sequences coding for the firefly luciferase reporter gene, the neomycin selectable marker and the EMCV IRES to direct expression of a truncated HCV genome expressing the […] NS3, NS4A, NS4B, NS5A, and NS5B. HCV targets through which inhibitors could act to inhibit replication include the NS3 protease, the helicase/ATPase, NS5A, the NS5B- RNA dependent RNA polymerase, and the HCV IRES.
(§2) Expression of HCV IRES driven luciferase reporter activity and HCV RNA is measured to obtain indirect and direct measures of replication of HCV RNA respectively. Inhibitors of HCV replication and/or proliferation are determined by initially identifying molecules that inhibit expression of the HCV IRES driven luciferase reporter in this HCV Replicon Luciferase Assay. Cell viability assays and control cell based luciferase assays are then run on hits identified in the HCV Replicon Luciferase Assay to eliminate cytoxic compounds and non-specific compounds which act by inhibiting the luciferase enzyme.
(§3) Day 0 Cell Seeding and Compound Treatment: Huh-Luc-Neo Cells are seeded at 25,000/well in an opaque-walled 96 plate with Growth Medium (DMEM phenol red free+PS+2 mM glutamine; 100 μl/well). The compounds to be tested are added to the experimental wells (10 μl/well at 10× assay concentration) and the cells are then incubated (5% CO2, 37° C.) for 48 h.
(§4) Day 2 Reagent Preparation and Luciferase Assay: The Bright-Glo Luciferase Assay Buffer (Promega) is thawed and equilibrated to room temperature prior to use. The lyophilized Bright-Glo Luciferase Assay Substrate is equilibrated to room temperature prior to use. 10 ml of Bright-Glo Luciferase Assay Buffer is transferred to 1 vial of Bright-Glo Luciferase Assay Substrate bottle and mixed by gently with a Vortex. 100 ul of Bright-Glo Luciferase Assay reagent (Bright-Glo Luciferase Assay Buffer+Bright-Glo Luciferase Assay Substrate Mixture) is added to each well. The well contents are mixed for 5 min. on an orbital shaker at room temperature to induce cell lysis and the luminescence is then measured using a luminometer. The data is analyzed and IC50s are determined using GraphPad Prism 4 software. Hits validated in the Replicon Luciferase assay have IC50s<8.0 μM and show<30% inhibition of Cell Viability at a compound concentration of 100 μM (Cell Titer Glow Assay, cell viability assay conditions identical to HCV Replicon Luciferase Assay conditions).

[2] = system: HCV Replicon (HCV RNA in Huh-Luc-Neo cells); experiment: HCV Replicon RNA Assay (Taqman); type: cell-based, Hepatitis C virus; conditions: compound added day 0 and day 1, no unit in table, hit threshold in μM; for IC50: Hepatitis C virus
Method: as §1, §2
as §3, with “Day 0,” for “Day 0”, “37° C.).” for “37° C.) for 48 h.”
Day 1, Media Change and Compound Treatment: 24 hours after the initial compound treatment the cell culture media is aspirated from the wells and fresh Growth Medium is added (DMEM phenol red free+PS+2 mM glutamine; 100 μl/well). The compounds to be tested are then added to the appropriate experimental wells (10 μl/well at 10 × assay concentration) and the cells are then incubated (5% CO2, 37° C.) for an additional 24 hrs.
Day 2, RNA Isolation and cDNA Synthesis: The cells are washed with 1× Phosphate Buffered Saline (PBS) once.
(§5) Day 3, Quantitative PCR Based Measurement of HCV RNA (Taqman Assay): Quantitative PCR analysis to measure HCV RNA expression from cDNA synthesized on Day 2 is performed using the ABI 9700 HT Sequence Detection System (Applied Biosystems) as previously described (Lohman et al, Science 285, 110-113, 1999). The data is analyzed and IC50s are determined using GraphPad Prism 4 software. Hits validated in the Replicon RNA Assay have IC50s<8.0 μM and show <30% inhibition of Cell Viability at a compound concentration of 50 μM (Cell Titer Glow Assay, cell viability assay conditions identical to HCV Replicon RNA Assay conditions).

Huh-Luc-Neo cells = experiment: CellTiter-Glo Cell Viability Assay; type: cell-based, human; conditions: for Toxicity % Inhibition at 50 uM (2 doses): inhibition of cell viability at 50 uM, conditions as in Replicon RNA Assay; for Toxicity % Inhibition at 100 um (1 dose): inhibition of cell viability at 100 um, conditions as in Replicon Luciferase Assay (48 h)
Method: as §4, §5
as §3, with “Day 0,” for “Day 0”, “100 ul/well).” for “100 μl/well).”, “tested for inhibition of cell viability” for “tested”
Day 2, Reagent Preparation and Assay: The CellTiter-Glo Buffer is thawed and equilibrated to room temperature prior to use. The lyophilized CellTiter-Glo Substrate is equilibrated to room temperature prior to use. 10 ml of CeliTiter-Glo Buffer is transferred to 1 vial of CellTiter-Glo Substrate and mixed by gently with a Vortex. 100 μl of CellTiter-Glo Assay reagent (CellTiter-Glo Buffer+CellTiter-Glo Substrate Mixture) is added to each well. The well contents are mixed for 5 min. on an orbital shaker at room temperature to induce cell lysis and the luminescence is then measured using a luminometer.

| Structure (SMILES) | IC50 [1] [µM] | IC50 [2] [µM] | Toxicity % Inhibition at 50 uM (2 doses) (Huh-Luc-Neo cells) [%] | Toxicity % Inhibition at 100 um (1 dose) (Huh-Luc-Neo cells) [%] | TaqMan IC50 [2] |
| --- | --- | --- | --- | --- | --- |
| O=c1oc2ccccc2c(OCc2cccc(C(F)(F)F)c2)c1Cc1cccc(C(F)(F)F)c1 [VQ_31711] | 5.16 | 0.12 | 4.3 | 4.6 | – |
| O=c1oc2ccccc2c(OCc2ccc(C(F)(F)F)cc2)c1Cc1ccc(C(F)(F)F)cc1 [VQ_31712] | 4.92 | > 30 | 10.0 | 16.6 | – |
| Cc1ccc(COc2c(Cc3ccc(C)cc3)c(=O)oc3ccccc23)cc1 [VQ_31715] | 2.8 | 0.55 | 13.4 | 53.4 | – |
| COc1ccc2c(OCc3cccc(C)c3)c(Cc3cccc(C)c3)c(=O)oc2c1 [VQ_31729] | 3.53 | 0.36 | 5.1 | 3.0 | – |
| COc1ccc2c(OCc3cccc(Cl)c3)c(Cc3cccc(Cl)c3)c(=O)oc2c1 [VQ_31734] | 3.84 | 0.67 | 0.7 | 4.3 | – |
| COc1ccc2c(OCc3ccccc3C)c(Cc3ccccc3C)c(=O)oc2c1 [VQ_31738] | 5.44 | 0.21 | 6.1 | 23.6 | – |
| COc1ccc2c(OCc3ccc(F)cc3F)c(Cc3ccc(F)cc3F)c(=O)oc2c1 [VQ_31744] | 4.5 | 0.28 | 7.0 | 10.9 | – |
| COc1ccc2c(OCc3ccc(F)c(F)c3)c(Cc3ccc(F)c(F)c3)c(=O)oc2c1 [VQ_31748] | 5.38 | 1.97 | 4.9 | 10.0 | – |
| COc1ccc2c(OCc3cccc(C(F)(F)F)c3)c(Cc3cccc(C(F)(F)F)c3)c(=O)oc2c1 [VQ_31754] | 5.45 | 5.35 | 1.9 | 2.5 | – |
| COc1ccc2c(OCc3ccc(C(F)(F)F)cc3)c(Cc3ccc(C(F)(F)F)cc3)c(=O)oc2c1 [VQ_31758] | 6.16 | 5.24 | 2.6 | 14.7 | – |
| COc1ccc2c(OCc3ccc(C)cc3)c(Cc3ccc(C)cc3)c(=O)oc2c1 [VQ_31763] | 8.29 | 0.43 | 6.5 | 4.6 | – |
| Cc1cc2oc(=O)c(Cc3ccc(F)cc3F)c(OCc3ccc(F)cc3F)c2cc1C [VQ_32806] | 5.57 | 1.4 | 8.3 | 16.5 | – |
| Cc1ccc(COc2c(Cc3ccc(C)cc3)c(=O)n(C)c3ccccc23)cc1 [VQ_32833] | 2.89 | 0.58 | 20.7 | 34.6 | – |
| Cc1ccc(COc2c(Cc3ccc(C)cc3)c(=O)n(Cc3ccc(C)cc3)c3ccccc23)cc1 [VQ_33645] | 2.33 | > 30 | 17.2 | 21.5 | – |
| Cn1c(=O)c(Cc2ccc(Cl)c(Cl)c2)c(OCc2ccc(Cl)c(Cl)c2)c2ccccc21 [VQ_34453] | 8.5 | 1.97 | 12.2 | 24.6 | – |
| O=c1[nH]c2ccccc2c(OCc2ccc(F)cc2)c1Cc1ccc(F)cc1 [VQ_35018] | 1 | – | 12.3 | 10.0 | Inactive |
| Cc1cccc(COc2c(Cc3cccc(C)c3)c(=O)[nH]c3ccccc23)c1 [VQ_35027] | 2.1 | – | 12.5 | 4.6 | Inactive |
| COc1ccc(-c2c(OCc3cccc(C(F)(F)F)c3)c3ccccc3oc2=O)cc1 [VQ_36312] | 3.06 | 0.89 | 40.8 | 5.0 | – |
| COC(=O)CNCc1c(Nc2ccc(C)cc2)c2ccccc2oc1=O [VQ_36341] | 0.28 | 0.4 | 31.2 | 14.6 | – |
| Cc1ccc(Nc2c(CNc3ncccn3)c(=O)oc3ccccc23)cc1 [VQ_36343] | 0.13 | 0.16 | 37.9 | 21.1 | – |
| COc1ccc(Nc2c(/C=N/C3CCCCC3)c(=O)oc3ccccc23)cc1 [VQ_36467] | 51.1 | 0.46 | 13.9 | 22.8 | – |
| CCCCCC/N=C/c1c(Nc2ccc(OC)cc2)c2ccccc2oc1=O [VQ_36468] | 43.3 | 0.71 | 16.3 | 40.7 | – |
| COc1ccc(Nc2c(/C=N/c3nc4ccccc4s3)c(=O)oc3ccccc23)cc1 [VQ_36469] | 53.6 | 4.16 | 3.3 | 14.7 | – |
| COc1ccc(Nc2c(/C=N/c3ncccn3)c(=O)oc3ccccc23)cc1 [VQ_36470] | 59.9 | 4.08 | −2.7 | 12.5 | – |
| COc1ccc(Nc2c(/C=N/c3ccc(Cl)cc3)c(=O)oc3ccccc23)cc1 [VQ_36471] | 0.04 | 1.78 | 15.2 | 9.8 | – |
